We go through 1 compound from patent publication US6436992B1, “Use of fumaric acid derivatives” (Fumapharm AG, priority 1997, dated 2002).

The test deals with haemagglutinin formation in mice. The experiment in a line: Inhibition of haemagglutinin formation in mice immunised with sheep erythrocytes, after peroral administration. In kind it is in vivo.
Setting [1] is: mice, 150 mg/kg bodyweight p.o.
[2] abbreviates: mice, 300 mg/kg bodyweight p.o.
Where [3] appears, read: mice, 600 mg/kg bodyweight p.o.

On to `COC(=O)/C=C/C(=O)[O-].[Ca+]` [Methyl hydrogen fumarate-Ca salt], for which the “Inhibition of haemagglutinin formation in %” value came out at 13% under setting [1], 20% under setting [2] and 38% under setting [3]. Moreover, the Suppression index by setting is: under setting [1], 0.87; under setting [2], 0.80; under setting [3], 0.62. For the same compound, the “effect on haemagglutinin formation (in words)” value (mice, 300 mg/kg p.o.) is reported as “slight reduction”. Besides, the “suppressive effect on haemagglutinin formation (in words, over dose range)” value (mice, 150, 300 and 600 mg/kg p.o.) is on record as “dosage-dependent suppressive effect”. Also, the “immuno-suppressive effect (conclusion)” value (mice, p.o.) was “significant immuno-suppressive effect”.
